Read-outs that look alike come from different tables or passages of the source.
Assays:
HT29 = assay: cells; conditions: for Percentage of Cell Control: HT29, single dose 10 μM, four days
Description: (§1) Compounds were solubilized at […] in DMSO and were stored at −20° C. Test compounds were initially tested at a single concentration of 10 μM and a subset of test compounds were further tested in selected cell lines using a six concentration dose response curve.
(§2) Cell Preparation Cancer cell lines were passaged in T-75 flasks prior to use in the assay in cell culture medium recommended by the ATCC (American Type Culture Collection; Table 6). On the day preceding the assay, the cells were split 1:2 to assure they were in an exponential growth phase at the time of compound treatment. Total cell and viability quantification was performed using a hemocytometer and Trypan Blue dye exclusion. […] The cells were resuspended at the appropriate cell per mL (Table 6) in tissue culture medium and added to the microtitre plates in a volume of 100 μL. Colon cell lines were incubated overnight at 37° C./5% CO2 to allow for cell adherence to the plates.
(§3) Plate Format: Each plate contains cell control wells (cells only), drug calorimetric control wells (drug only) as well as experimental wells (drug plus cells). Samples were tested in triplicate at a concentration of 10 μM and five half-logarithmic dilutions.
(§4) Cell Viability by XTT: Following incubation at 37° C. in a 5% CO2 incubator for four days, the test plates were stained with the tetrazolium dye XTT (2,3-bis(2-methoxy-4-nitro-5-sulfophenyl)-5-[(phenylamino)carbonyl]-2H-tetrazolium hydroxide). XTT-tetrazolium was metabolized by the mitochondrial enzymes of metabolically active cells to a soluble formazan product. XTT solution was prepared daily as a stock of 1 mg/mL in RPMI1640. Phenazine methosulfate (PMS) solution was prepared at 0.15 mg/mL in phosphate buffered saline (PBS) and stored in the dark at −20° C. XTT/PMS stock was prepared immediately before use by adding 40 μL of PMS per mL of XTT solution. Fifty (50) microlitres of XTT/PMS was added to each well of the plate and the plate was reincubated for 4 hours at 37° C. Plates were sealed with adhesive plate sealers and shaken gently or inverted several times to mix the soluble formazan product and the plate was read spectrophotometrically at 450/650 nm with a Molecular Devices Vmax plate reader. […] An Average Response Factor (ARF) was calculated for each compound by averaging the ten Percentage of Control values for the cell lines. […] Deviations below 100% control indicate activity. The concentration of each tested compound is 10 μM.

HL-60 = assay: Cell viability by XTT; type: cell-based; conditions: HL-60, single dose 10 μM, four days
Description: as §1, §2, §3, §4

HCT-15 = assay: Cell viability by XTT; type: cell-based; conditions: HCT-15, single dose 10 μM, four days
Description: as §1, §2, §3, §4

[1] = system: 5 Leukemia and 5 Colon Cancer Cell Lines; assay: Cell viability by XTT, cell line panel; type: cell-based; conditions: for Range (Percentage of Control over the same 10 cell lines): lowest to highest of the ten cell lines
In short: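 Leukemia and colon cancer lines in exponential growth were exposed to compounds for four days at 37 °C/5% CO2, with colon lines allowed overnight adherence beforehand. Viability read by XTT/PMS reduction (4 h) at 450/650 nm; percent of control at 10 μM averaged over ten lines as ARF.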

Jurkat = assay: Cell viability by XTT; conditions: for Percentage of Cell Control: single dose 10 μM, four days
Description: as §1, §2, §3, §4

Caco-2 = assay: Cell viability by XTT; conditions: for Percentage of Cell Control: Caco-2, single dose 10 μM, four days
Description: as §1, §2, §3, §4

THP-1 = assay: Cell viability by XTT; conditions: for Percentage of Cell Control: THP-1, single dose 10 μM, four days
Description: as §1, §2, §3, §4

Calf polymerase alpha = molecular target: T1, Calf polymerase alpha (Bos taurus, UniProt A0AAA9TD94); assay: Calf polymerase alpha inhibition (Replizyme kit); type: biochemical; conditions: at 10 μM, single point screening
T1 construct: purchased Replizyme Ltd (Heslington, York, UK)
T1 sequence (A0AAA9TD94 1-1441): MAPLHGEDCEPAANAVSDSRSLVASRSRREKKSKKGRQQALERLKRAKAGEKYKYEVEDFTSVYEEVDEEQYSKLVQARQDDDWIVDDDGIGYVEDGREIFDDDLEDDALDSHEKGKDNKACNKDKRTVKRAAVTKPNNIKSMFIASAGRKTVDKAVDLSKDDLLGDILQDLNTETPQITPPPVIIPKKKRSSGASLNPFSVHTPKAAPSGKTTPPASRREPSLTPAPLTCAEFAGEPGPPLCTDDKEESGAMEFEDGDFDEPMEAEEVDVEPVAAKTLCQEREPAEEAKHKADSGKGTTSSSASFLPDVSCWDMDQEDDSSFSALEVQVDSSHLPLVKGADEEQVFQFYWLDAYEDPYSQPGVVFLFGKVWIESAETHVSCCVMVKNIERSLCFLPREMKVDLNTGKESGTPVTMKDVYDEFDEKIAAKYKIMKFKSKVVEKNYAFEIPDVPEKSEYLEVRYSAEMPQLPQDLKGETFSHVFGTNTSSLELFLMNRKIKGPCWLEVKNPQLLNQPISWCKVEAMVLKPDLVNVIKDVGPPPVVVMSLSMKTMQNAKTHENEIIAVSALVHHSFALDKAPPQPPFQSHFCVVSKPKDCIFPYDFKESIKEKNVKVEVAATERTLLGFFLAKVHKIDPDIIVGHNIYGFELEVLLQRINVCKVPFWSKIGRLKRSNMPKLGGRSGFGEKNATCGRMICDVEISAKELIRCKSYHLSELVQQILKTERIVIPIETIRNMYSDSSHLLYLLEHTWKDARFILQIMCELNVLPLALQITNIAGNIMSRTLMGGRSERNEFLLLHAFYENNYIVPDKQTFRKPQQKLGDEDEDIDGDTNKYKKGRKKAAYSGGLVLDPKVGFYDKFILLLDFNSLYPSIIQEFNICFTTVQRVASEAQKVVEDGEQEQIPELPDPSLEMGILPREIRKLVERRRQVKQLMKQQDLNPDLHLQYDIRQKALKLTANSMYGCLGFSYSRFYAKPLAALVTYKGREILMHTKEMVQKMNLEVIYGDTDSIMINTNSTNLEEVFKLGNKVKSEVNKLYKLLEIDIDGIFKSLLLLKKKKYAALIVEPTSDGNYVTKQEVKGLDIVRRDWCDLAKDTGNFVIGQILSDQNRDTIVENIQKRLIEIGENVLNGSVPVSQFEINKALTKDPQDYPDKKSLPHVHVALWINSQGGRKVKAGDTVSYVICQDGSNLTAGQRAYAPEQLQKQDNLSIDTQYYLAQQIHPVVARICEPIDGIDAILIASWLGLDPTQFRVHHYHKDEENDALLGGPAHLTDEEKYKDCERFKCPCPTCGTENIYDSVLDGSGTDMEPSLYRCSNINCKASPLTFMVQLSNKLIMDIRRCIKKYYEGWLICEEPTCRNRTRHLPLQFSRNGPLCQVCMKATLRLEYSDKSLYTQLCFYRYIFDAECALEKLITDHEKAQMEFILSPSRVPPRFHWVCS
Description: Calf polymerase alpha and human polymerase alpha investigations were performed with a kit available from Replizyme Ltd (Heslington, York, UK).

SMILES | Percentage of Cell Control (HT29) | Percentage of Cell Control (HL-60) | Percentage of Cell Control (HCT-15) | ARF (Average Response Factor, Average Percentage of Control) ([1]; 10 μM, average of the ten Percentage of Control values) | Range (Percentage of Control over the same 10 cell lines) ([1]; 10 μM) | CC50 (Jurkat; read-out: Activity (TC50), six concentration dose response, Table 9) | Percentage of Cell Control (Jurkat) | Percentage of Cell Control (Caco-2) | CC50 (Caco-2; read-out: Activity (TC50), Caco-2, six concentration dose response, Table 9) | Percentage of Cell Control (THP-1) | CC50 (THP-1; read-out: Activity (TC50), THP-1, six concentration dose response, Table 9) | % Inhibition (Calf polymerase alpha) | CC50 (HT29; Homo sapiens, HT-29, read-out: Activity (TC50)) | viability at 10 µM ([1]; average of the ten Percentage of Control values, read-out: ARF (Average Response Factor, Average Percentage of Control)) | CC50 (Jurkat; Homo sapiens, read-out: Activity (TC50)) | CC50 (Caco-2; Homo sapiens, Caco-2, read-out: Activity (TC50)) | CC50 (THP-1; Homo sapiens, THP-1, read-out: Activity (TC50)) | inhibition at 10 µM (Calf polymerase alpha)
Cc1ccc(NC(=O)[C@H](CCCCN)NCc2ccc(NC(=O)Nc3ccncc3)cc2)cc1 [Compound 262, (S)-6-AMINO-2-[4-(3-PYRIDIN-4-YL-UREIDO)-BENZYLAMINO]-HEXANOIC ACID P-TOLYLAMIDE] | 63.8% | 53.1% | 75% | 69.4% | 3.1 to 121.1% | 5.5 µM | 3.1% | 21.6% | 8.7 µM | 49.4% | 7.9 µM | 102% | – | – | – | – | – | –
NCCCC[C@H](NC(=O)OCC1c2ccccc2-c2ccccc21)C(=O)Nc1ccc(OCc2ccccc2)c(Cl)c1 [Compound 210, (S)-[5-AMINO-1-(4-BENZYLOXY-3-CHLORO-PHENYLCARBAMOYL)-PENTYL]-CARBAMIC ACID 9H-FLUOREN-9-YLMETHYL ESTER] | 0% | 0.4% | 71.8% | – | 0 to 94.0% | – | 9.3% | 2.4% | – | 0% | – | – | 9.8 µM | 41.1% | 5.4 µM | 10 µM | 7.7 µM | 104%

Reference: US20080171783A1, “COMPOSITIONS AND METHODS FOR TREATING HYPERPROLIFERATIVE DISEASE” (Migenix Inc., priority 2006, published 2008)
